The values that follow come from US9415096B2 (priority 2007, dated 2016).

One data set deals with PK-8 cells. The data set can be described thus: Cytotoxicity test (chromium release assay) of peptide-induced killer T cells against PK-8. The conditions noted are these: killer T cells from breast cancer patients induced with the peptide; PK-8 HLA-A2 negative, FOXM1 positive.
Another data set deals with panc-1 cells. The data set can be described thus: Cytotoxicity test (chromium release assay) of peptide-induced killer T cells against panc-1. The conditions noted are these: for HLA-A2 restricted and FOXM1-specific cytotoxic activity of induced killer T cells: chromium release assay, panc-1 (HLA-A2 positive) versus PK-8 (HLA-A2 negative); for cytotoxic activity against panc-1 cells: killer T cells from breast cancer patients induced with the peptide, panc-1 HLA-A2 positive, FOXM1-expressing.

Ends that are not written are not given here.

Regarding SLVLQPSVKV [FOXM1 373-382, SLVLQPSVKV], the “cytotoxic activity against PK-8 cells” value in the data set with PK-8 cells is on record as “did not show cytotoxic activity”. In the data set with panc-1 cells, the “HLA-A2 restricted and FOXM1-specific cytotoxic activity of induced killer T cells” value is “HLA-A2 restricted and FOXM1-specific cytotoxic activity was observed”; the “cytotoxic activity against panc-1 cells” value was “strong cytotoxic activity”.
For the sequence YLVPIQFPV [FOXM1 362-370, YLVPIQFPV], in the data set on PK-8 cells, the “cytotoxic activity against PK-8 cells” value is recorded as “did not show cytotoxic activity”. Also, in the data set with panc-1 cells, the “HLA-A2 restricted and FOXM1-specific cytotoxic activity of induced killer T cells” value was “HLA-A2 restricted and FOXM1-specific cytotoxic activity was observed”; the “cytotoxic activity against panc-1 cells” value is “strong cytotoxic activity”.
In the case of GLMDLSTTPL [FOXM1 640-649, GLMDLSTTPL], in the data set with PK-8 cells, the “cytotoxic activity against PK-8 cells” value was “did not show cytotoxic activity”. Moreover, in the data set on panc-1 cells, the “HLA-A2 restricted and FOXM1-specific cytotoxic activity of induced killer T cells” value is “HLA-A2 restricted and FOXM1-specific cytotoxic activity was observed”; the “cytotoxic activity against panc-1 cells” value is “strong cytotoxic activity”.
